From patent publication US6649631B1, “Compositions and methods for treating bone deficit conditions” (The Board of Regents of the University of Texas System, priority 1999, dated 2003)

Key:
[1] = tested on: ovariectomized rats; assay: Stimulation of bone growth in ovariectomized rats (OVX assay); format: in vivo, rat
Description: Lead compounds also be tested in acute ovariectomized animals (prevention model) using an in vivo dosing assay. Such assays may also include an estrogen-treated group as a control. An exemplary subcutaneous dosing assay is performed as follows:
In a typical study, 80 three-month-old female Sprague-Dawley rats are weight-matched and divided into eight groups, with ten animals in each group. This includes a baseline control group of animals sacrificed at the initiation of the study; three control groups (sham ovariectomized (sham OVX)+vehicle only; ovariectomized (OVX)+vehicle only; PBS-treated OVX); and a control OVX group that is administered a compound known to promote bone growth. Three dosage levels of the compound to be tested are administered to the remaining three groups of OVX animals.
Since ovariectomy (OVX) induces hyperphagia, all OVX animals are pair-fed with sham OVX animals throughout the 35 day study. Briefly, test compound, positive control compound, PBS, or vehicle alone is administered subcutaneously once per day for 35 days. Alternatively, test compound can be formulated in implantable pellets that are implanted for 35 days, or may be administered orally, such as by gastric gavage. All animals, including sham OVX/vehicle and OVX/vehicle groups, are injected intraperitoneally with calcein nine days and two days before sacrifice (two injections of calcein administered each designated day, to ensure proper labeling of newly formed bone). Weekly body weights are determined. At the end of the 35-day cycle, the animals' blood and tissues are processed as described above.
Lead compounds may also be tested in chronic OVX animals (treatment model). An exemplary protocol for treatment of established bone loss in ovariectomized animals that can be used to assess efficacy of anabolic agents may be performed as follows. Briefly, 80 to 100 six month old female, Sprague-Dawley rats are subjected to sham surgery (sham OVX) or ovariectomy (OVX) at time 0, and 10 rats are sacrificed to serve as baseline controls. Body weights are recorded weekly during the experiment. After approximately 6 weeks of bone depletion (42 days), 10 sham OVX and 10 OVX rats are randomly selected for sacrifice as depletion period controls. Of the remaining animals, 10 sham OVX and 10 OVX rats are used as placebo-treated controls. The remaining OVX animals are treated with 3 to 5 doses of test drug for a period of 5 weeks (35 days). As a postitive control, a group of OVX rats can be treated with an agent such as PTH, a known anabolic agent in this model (Kimmel et al. Endocrinology (1993) 132:1577-84). To determine effects on bone formation, the following procedure can be followed. The femurs, tibiae and lumbar vertebrae 1 to 4 are excised and collected. The proximal left and right tibiae are used for pqCT measurements, cancellous bone mineral density (BMD) (gravimetric determination), and histology, while the midshaft of each tibiae is subjected to cortical BMD or histology. The femurs are prepared for pqCT scanning of the midshaft prior to biomechanical testing. With respect to lumbar vertebrae (LV), LV2 are processed for BMD (pqCT may also be performed); LV3 are prepared for undecalcified bone histology; and LV4 are processed for mechanical testing.
The compound 59-0145 was tested at various concentrations in the OVX assay conducted as described above. The increase in bone volume was measured by two different groups; one group found 5 μg/kg/day of 59-0145 gave 21% increase over control whereas the second group found a 71% increase. At 50 μg/kg/day, the first group found a 31% increase, and the second a 54% increase.
In another experiment, 3 month old Sprague Dawley rats were ovariectomized and depleted for six weeks. At the end of the six weeks, treatment was started with subcutaneous administration of compound 59-0145. The treatment continued for 10 weeks. […]

[2] = tested on: neonatal mouse calvaria; assay: Ex vivo (neonatal mouse) calvarial bone growth assay; format: cell-based
Description: This assay is similar to that described by Gowen M. & Mundy G. J Immunol (1986) 136:2478-82. Briefly, four days after birth, the front and parietal bones of ICR Swiss white mouse pups are removed by microdissection and split along the sagittal suture. The bones are incubated in BGJb medium (Irvine Scientific, Santa Ana, Calif.) plus 0.02% (or lower concentration) β-methylcyclodextrin, wherein the medium also contains test or control substances, at 37° C. in a humidified atmosphere of 5% CO2 and 95% air for 96 hours.
Following this, the bones are removed from the incubation media and fixed in 10% buffered formalin for 24-48 hours, decalcified in 14% EDTA for 1 week, processed through graded alcohols; and embedded in paraffin wax. Three μm sections of the calvaria are prepared. Representative sections are selected for histomorphometric assessment of bone formation and bone resorption. Bone changes are measured on sections cut 200 μm apart. Osteoblasts and osteoclasts are identified by their distinctive morphology.
A number of compounds, in particular, those studied in connection with lead compounds classified as hydrazone/hydrazides (H) exemplified by 59-0045, benzothiazoles (T) exemplified by 59-0104, bis-pyridines (P) exemplified by 59-0145, and quinolines/quinoxalines (Q) exemplified by 59-0197, were tested in the ex vivo calvarial assay described hereinabove.
The scores are assigned to bone formation on the ectocranial periosteal surface. The area immediately surrounding midline suture is excluded from analysis.
In all samples, toxicity, ectopic new or woven bone formation associated with osteoblasts, and osteoblast size as reflections of relative activity are noted.

[3] = tested on: BMP2 promoter; assay: High throughput screening: BMP-2 promoter luciferase reporter in 2T3-BMP-2-LUC cells; format: cell-based, mouse
From the text: A rapid throughput screening test for compounds capable of stimulating expression of a reporter gene linked to a BMP promoter (a surrogate for the production of bone morphogenetic factors that are endogenously produced) is described in WO96/38590 published Dec. 5, 1996, the contents of which are incorporated herein by reference. This assay is also described as a portion of a study of immortalized murine osteoblasts (derived from a mouse expressing a transgene composed of a BMP2 promoter driving expression of T-antigen) in Ghosh-Choudhery, N. et al. Endocrinology (1996) 137:331-39. In this study, the immortalized cells were stably transfected with a plasmid containing a luciferase reporter gene driven by a mouse BMP2 promoter (−2736/114 bp), and responded in a dose-dependent manner to recombinant human BMP2.
Briefly, the assay utilizes cells transformed permanently or transiently with constructs in which the promoter of a bone morphogenetic protein, specifically BMP2 or BMP4, is coupled to a reporter gene, typically luciferase. These transformed cells are then evaluated for the production of the reporter gene product; compounds that activate the BMP promoter will drive production of the reporter protein, which can be readily assayed. Over 40,000 compounds have been subjected to this rapid screening technique, and only a very small percentage are able to elicit a level of production of luciferase 5-fold greater than that produced by vehicle. […] The active compounds (“BMP promoter-active compounds” or “active compounds”) are useful in promoting bone or cartilage growth, and thus in the treatment of vertebrates in need of bone or cartilage growth.
Several tens of thousands of compounds were tested in the assay system set forth in WO 96/38590, published Dec. 5, 1996, and incorporated herein by reference. […]
The treated cells were incubated for 24 hours at 37° C. and 5% CO2. […] Luminescence was measured on an automated 96-well luminometer, and was expressed as either picograms of luciferase activity per well or as picograms of luciferase activity per microgram of protein. […]

[4] = tested on: TMC-23 cells; assay: Chondrogenic activity: alkaline phosphatase (ALP) activity in TMC-23 cells; format: cell-based, mouse; conditions: day 2, 10^−9 M
Description: For measurement of alkaline phosphatase (ALP) activity, the technique of LF Bonewald et al. J. Biol Chem (1992) 267:8943-49, was employed. Briefly, TMC-23 cells were plated in 96 well microtiter plates in DMEM containing 10% FCS at 4×10^3 cells/well. Two days after plating, the cells were confluent and the medium was replaced with fresh medium containing 10% FCS and different concentrations of compounds or recombinant BMP-2. After an additional 2 or 5 days incubation, the plates were washed twice with PBS, and then lysing solution (0.05% Triton X-100) was added (100 μl/well). The cells were lysed by three freeze-thaw cycles of −70° C. (30 min), followed by 37° C. (30 min with shaking). Twenty microliters of cell lysates were assayed with 80 μl of 5 mM p-nitrophenol phosphate in 1.5 M 2-amino-2-methyl-propanol buffer, pH 10.3 (Sigma ALP kit, Sigma Chemical Co., St. Louis, Mo.) for 10 min at 37° C. The reaction was stopped by the addition of 100 μl of 0.5 M NaOH. The spectrophotometric absorbance at 405 nm was compared to that of p-nitrophenol standards to estimate ALP activity in the samples. The protein content of the cell lysates was determined by the Bio-Rad protein assay kit (Bio-Rad, Hercules, Calif.). Specific activity was calculated using these two parameters.

[5] = tested on: Swiss white mice; assay: In vivo assay of effects of compounds on murine calvarial bone growth; set-up: species or system mouse; conditions: as compared to a vehicle control
Description: Male ICR Swiss white mice, aged 4-6 weeks and weighing 13-26 gm, are employed, using 4-5 mice per group. The calvarial bone growth assay is performed as described in PCT application WO 95/24211. Briefly, the test compound or appropriate control vehicle is injected into the subcutaneous tissue over the right calvaria of normal mice. Typically, the control vehicle is the vehicle in which the compound was solubilized, and is PBS containing 5% DMSO or is PBS containing Tween (2 μl/10 ml). The animals are sacrificed on day 14 and bone growth measured by histomorphometry. Bone samples for quantitation are cleaned from adjacent tissues and fixed in 10% buffered formalin for 24-48 hours, decalcified in 14% EDTA for 1-3 weeks, processed through graded alcohols; and embedded in paraffin wax. Three to five μm sections of the calvaria are prepared, and representative sections are selected for histomorphometric assessment of the effects on bone formation and bone resorption. Sections are measured by using a camera lucida attachment to trace directly the microscopic image onto a digitizing plate. Bone changes are measured on sections cut 200 μm apart, over 4 adjacent 1×1 mm fields on both the injected and noninjected sides of the calvaria. […]
Similar results are obtained when new bone width in microns is measured. […]

FC(F)(F)c1ccc(NCCNc2ccc(C(F)(F)F)cn2)nc1 [Compound 59-0145]
increase in bone volume over control ([1]; 5 μg/kg/day, first group of measurers): 21% | increase in bone volume over control ([1]; 5 μg/kg/day, second group of measurers): 71% | increase in bone volume over control ([1]; 50 μg/kg/day, first group of measurers): 31% | increase in bone volume over control ([1]; 50 μg/kg/day, second group of measurers): 54% | effect on lumbar vertebrae ([1]; 5 and 50 μg/kg/day, FIG. 10): beneficial effect | increase in trabecular bone (proximal tibia) compared to placebo-treated group ([1]; chronic OVX rats, depleted 6 weeks, subcutaneous, 10 weeks of treatment, 50-500 μg/kg/day): significant increase | activity in the ex vivo calvarial assay, in words [2]: consistent moderate activity

CN(C)c1ccc(C=Cc2cnc3ccccc3n2)cc1 [Compound 59-0019]
activity in the ex vivo calvarial assay, in words [2]: at least some indication of activity

N#Cc1ccc(NCCNc2ccc(C(F)(F)F)cn2)nc1 [Compound 59-0483]
performance in the screening assay relative to 59-0008 [3]: better than 59-0008

COc1cc(N(C)C)ccc1C=Cc1ccc2ccccc2n1 [Compound 59-0150]
activity in the ex vivo calvarial assay, in words [2]: activity when measured by one group but not the other

CC(CNc1ccc(C(F)(F)F)cn1)Nc1ccc(C(F)(F)F)cn1 (centres unmarked) [Compound 59-0459]
performance in the screening assay relative to 59-0008 [3]: better than 59-0008

c1ccc(N=NC2=NNc3ccccc3S2)cc1 [Compound 59-0008, 3-phenylazo-1H-4,1,2-benzothiadiazine]
response at maximal activity ([3]; at about 3 μM): approximately 175 light emission units | increase of ALP levels compared to the vehicle control [4]: approximately 3 fold | increase in width of new calvarial bone [5]: 4 fold
